Structures are written as SMILES.

As a reminder, the inhibition is the relative decrease from the control value, in per cent.

Chain of 3',5'-cyclic-AMP phosphodiesterase 4B (Homo sapiens) (Q07343 whole entry): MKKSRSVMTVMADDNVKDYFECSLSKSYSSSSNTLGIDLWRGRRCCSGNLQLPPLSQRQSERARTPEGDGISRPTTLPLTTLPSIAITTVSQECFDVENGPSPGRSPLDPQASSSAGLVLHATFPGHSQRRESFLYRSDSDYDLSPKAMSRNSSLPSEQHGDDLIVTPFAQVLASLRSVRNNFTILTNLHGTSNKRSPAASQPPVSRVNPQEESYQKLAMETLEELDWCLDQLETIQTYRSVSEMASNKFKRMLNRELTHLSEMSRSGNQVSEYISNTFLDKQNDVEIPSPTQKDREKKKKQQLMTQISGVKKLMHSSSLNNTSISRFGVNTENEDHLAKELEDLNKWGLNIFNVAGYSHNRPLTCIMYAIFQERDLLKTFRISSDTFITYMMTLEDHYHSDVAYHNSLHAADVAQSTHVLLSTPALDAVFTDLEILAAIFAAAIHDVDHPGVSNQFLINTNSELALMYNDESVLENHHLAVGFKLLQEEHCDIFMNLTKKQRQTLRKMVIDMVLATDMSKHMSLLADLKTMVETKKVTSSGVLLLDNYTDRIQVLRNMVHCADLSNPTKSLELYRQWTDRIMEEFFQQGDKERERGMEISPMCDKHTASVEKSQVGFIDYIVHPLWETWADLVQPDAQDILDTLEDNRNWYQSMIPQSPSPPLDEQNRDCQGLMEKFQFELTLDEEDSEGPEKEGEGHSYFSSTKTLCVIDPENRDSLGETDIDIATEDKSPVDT

The assay concerns the target 3',5'-cyclic-AMP phosphodiesterase 4B (Homo sapiens) (UniProt Q07343). Kind of assay: Inhibition of PDE4B2 (unknown origin) using FAM-cAMP as substrate at 10 uM after 60 min by fluorescence polarization assay.
The compound `CCCCn1c(N/N=C/c2cccc(O)c2)nc2ccccc2c1=O` had an inhibition of 11%.
`CCCCn1c(N/N=C/c2ccc(N(C)C)cc2)nc2ccccc2c1=O` gave an inhibition of 19%.
Then `CCCCn1c(=O)c2ccccc2n2c(-c3ccc(O)c(OC)c3)nnc12`, with 62%; and `CCCCN1C(=O)c2ccccc2NC1c1ccc(O)c(OC)c1` (stereo not given), with 15%.
The value for `CCCCn1c(=O)c2ccccc2n2c(-c3cccc([N+](=O)[O-])c3)nnc12` was 44%.
The value for `COc1ccc(C2CNC(=O)C2)cc1OC1CCCC1` (stereo not given) was 90%.
`CCCCn1c(=O)c2ccccc2n2c(-c3ccc(N(C)C)cc3)nnc12` returned an inhibition of 6%.
`CCCCn1c(=O)c2ccccc2n2c(-c3cccc(O)c3)nnc12` showed an inhibition of 44%.
The value for `CCCCN1C(=O)c2ccccc2NC1c1cccc([N+](=O)[O-])c1` (stereo not given) was 15%; that for `CCCCN1C(=O)c2ccccc2NC1c1ccc(N(C)C)cc1` (stereo not given) was 7%.
